Source: PubChem BioAssay AID2060502 (Molecular Pharmacology Branch, DTP, NCI, 2025)
pIC50: −log10 of the molar value.

Test system: 885724-159-R-J1-PDC complex spheroid viability
Assay: Anticancer human tumor 885724-159-R-J1-PDC patient-derived pancreatic adenocarcinoma cell line growth inhibition [GQUAD]
Settings: for pIC50: curve of first compound; for viability, T/C: stronger effect = lower value
Procedure, shortened: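 Tumor cells were grown as complex spheroids with HUVEC endothelial cells and mesenchymal stem cells as stroma. G-quadruplex stabilizers were combined with targeted agents over half-log dilutions from near the clinical Cmax, or from 10 microM.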

[1] = second compound 0.0316 µM, first compound 0.0316 µM
[2] = second compound 0.0316 µM, first compound 0.1 µM
[3] = second compound 0.0316 µM, first compound 0.316 µM
[4] = second compound 0.0316 µM, first compound 1 µM
[5] = second compound 0.0316 µM, first compound 3.16 µM
[6] = second compound 0.0316 µM, first compound 10 µM
[7] = second compound 0.1 µM, first compound 0.0316 µM
[8] = second compound 0.1 µM, first compound 0.1 µM
[9] = second compound 0.1 µM, first compound 0.316 µM
[10] = second compound 0.1 µM, first compound 1 µM
[11] = second compound 0.1 µM, first compound 3.16 µM
[12] = second compound 0.1 µM, first compound 10 µM
[13] = second compound 0.316 µM, first compound 0.0316 µM
[14] = second compound 0.316 µM, first compound 0.1 µM
[15] = second compound 0.316 µM, first compound 0.316 µM
[16] = second compound 0.316 µM, first compound 1 µM
[17] = second compound 0.316 µM, first compound 3.16 µM
[18] = second compound 0.316 µM, first compound 10 µM
[19] = second compound 1 µM, first compound 0.0316 µM
[20] = second compound 1 µM, first compound 0.1 µM
[21] = second compound 1 µM, first compound 0.316 µM
[22] = second compound 1 µM, first compound 1 µM
[23] = second compound 1 µM, first compound 3.16 µM
[24] = second compound 1 µM, first compound 10 µM
[25] = second compound 3.16 µM, first compound 0.0316 µM
[26] = second compound 3.16 µM, first compound 0.1 µM
[27] = second compound 3.16 µM, first compound 0.316 µM
[28] = second compound 3.16 µM, first compound 1 µM
[29] = second compound 3.16 µM, first compound 3.16 µM
[30] = second compound 3.16 µM, first compound 10 µM
[31] = second compound 10 µM, first compound 0.0316 µM
[32] = second compound 10 µM, first compound 0.1 µM
[33] = second compound 10 µM, first compound 0.316 µM
[34] = second compound 10 µM, first compound 1 µM
[35] = second compound 10 µM, first compound 3.16 µM
[36] = second compound 10 µM, first compound 10 µM
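Also: spheroids exposed to agents for seven days before readout.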
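For viability, T/C in this document: percent of vehicle control viability where 100% = DMSO wells.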

Which results are given for `CCCS(=O)(=O)Nc1ccc(F)c(C(=O)c2c[nH]c3ncc(-c4ccc(Cl)cc4)cc23)c1F` + Cc1[nH]c2ccc(F)cc2c1-c1nc2c3cccnc3c3ncccc3c2[nH]1?
pIC50 (second compound 0.0316 µM): < 5.00; pIC50 (second compound 0.1 µM): < 5.00; pIC50 (second compound 0.316 µM): < 5.00; pIC50 (second compound 1 µM): 5.13; pIC50 (second compound 3.16 µM): > 7.50; pIC50 (second compound 10 µM): 5.08; viability, T/C [1]: 98.7%; viability, T/C [2]: 106%; viability, T/C [3]: 112%; viability, T/C [4]: 130%; viability, T/C [5]: 123%; viability, T/C [6]: 65.2%; viability, T/C [7]: 110%; viability, T/C [8]: 106%; viability, T/C [9]: 116%; viability, T/C [10]: 124%; viability, T/C [11]: 125%; viability, T/C [12]: 65.6%; viability, T/C [13]: 97.6%; viability, T/C [14]: 89.8%; viability, T/C [15]: 90%; viability, T/C [16]: 107%; viability, T/C [17]: 130%; viability, T/C [18]: 59.8%; viability, T/C [19]: 71.8%; viability, T/C [20]: 60.4%; viability, T/C [21]: 88.2%; viability, T/C [22]: 90.8%; viability, T/C [23]: 102%; viability, T/C [24]: 38.7%; viability, T/C [25]: 17%; viability, T/C [26]: 17.7%; viability, T/C [27]: 14.4%; viability, T/C [28]: 18.3%; viability, T/C [29]: 13.9%; viability, T/C [30]: 4.94%; viability, T/C [31]: 65.9%; viability, T/C [32]: 73.4%; viability, T/C [33]: 77.7%; viability, T/C [34]: 93.8%; viability, T/C [35]: 110%; viability, T/C [36]: 43.6%

Which results are given for `COc1cc(C2c3cc4c(cc3C(OC3OC5COC(C)OC5C(O)C3O)C3COC(=O)C23)OCO4)cc(OC)c1O` (centres undefined) + Cc1[nH]c2ccc(F)cc2c1-c1nc2c3cccnc3c3ncccc3c2[nH]1?
pIC50 (second compound 0.0316 µM): < 5.00; pIC50 (second compound 0.1 µM): < 5.00; pIC50 (second compound 0.316 µM): < 5.00; pIC50 (second compound 1 µM): < 5.00; pIC50 (second compound 3.16 µM): > 7.50; pIC50 (second compound 10 µM): < 5.00; viability, T/C [1]: 92.8%; viability, T/C [2]: 88.7%; viability, T/C [3]: 93.8%; viability, T/C [4]: 94.9%; viability, T/C [5]: 79.2%; viability, T/C [6]: 88.5%; viability, T/C [7]: 102%; viability, T/C [8]: 117%; viability, T/C [9]: 93.1%; viability, T/C [10]: 103%; viability, T/C [11]: 80.2%; viability, T/C [12]: 80.2%; viability, T/C [13]: 103%; viability, T/C [14]: 87.2%; viability, T/C [15]: 80.7%; viability, T/C [16]: 83.2%; viability, T/C [17]: 79.7%; viability, T/C [18]: 72.3%; viability, T/C [19]: 89.5%; viability, T/C [20]: 69.8%; viability, T/C [21]: 75%; viability, T/C [22]: 69.1%; viability, T/C [23]: 77.8%; viability, T/C [24]: 61%; viability, T/C [25]: 53.2%; viability, T/C [26]: 32.2%; viability, T/C [27]: 45.4%; viability, T/C [28]: 43.7%; viability, T/C [29]: 35.8%; viability, T/C [30]: 26.5%; viability, T/C [31]: 68.3%; viability, T/C [32]: 69.3%; viability, T/C [33]: 70.9%; viability, T/C [34]: 68%; viability, T/C [35]: 70.6%; viability, T/C [36]: 55.4%
